Legend:
rat [1] = settings: Sub-acute repeat dose toxicity; sprague dawley; Injection; Subcutaneous; dose end: 5 day; group: systemic; systemic / in life observation / clinical signs / erythema + systemic / in life observation / clinical signs / scabbing + systemic / in life…
dog [2] = settings: Subchronic oral toxicity in nonrodent, beagle, Capsule, dose end: 13 week, group: systemic
rat [3] = settings: Combined chronic toxicity/carcinogenicity, sprague dawley, Oral, Feed, dose end: 24 month, group: systemic
rat [4] = settings: Prenatal developmental toxicity study, sprague dawley, Oral, Gavage/Intubation, dose end: 15 GD
mouse [5] = settings: Subchronic oral toxicity in rodents, Feed, dose end: 3 month, group: systemic
rat [6] = settings: Multigenerational reproductive toxicity study, other, Oral, Feed, dose end: 2 generation
dog [7] = settings: Chronic toxicity; beagle; Oral; Capsule; dose end: 52 week; group: systemic; systemic / hematology / anemia / anemia - hemolytic + systemic / hematology / erythrocyte (rbc) count differential / erythrocyte (rbc) + …
mouse [8] = settings: Carcinogenicity; other; Oral; Feed; group: systemic; systemic / hematology / anemia / anemia - nos + systemic / pathology microscopic / bone marrow / hemosiderosis + systemic / pathology …
rat [9] = settings: Subchronic oral toxicity in rodents, sprague dawley, Feed, dose end: 90 day, group: systemic
rat [10] = settings: Subchronic oral toxicity in rodents, sprague dawley, Feed, dose end: 13 week, group: systemic, systemic / clinical chemistry / cholesterol / cholesterol + systemic / clinical chemistry / globulins / globulins + systemic / clinical …
rat [11] = settings: Sub-acute repeat dose toxicity; sprague dawley; Oral; Feed; dose end: 28 day; group: systemic; systemic / clinical chemistry / cholesterol / cholesterol + systemic / clinical chemistry / triglycerides / triglycerides + systemic / …
rabbit = settings: Prenatal developmental toxicity study, new zealand white, Oral, Gavage/Intubation, dose end: 19 GD
rat [12] = settings: Developmental neurotoxicity study, other, Oral, Gavage/Intubation, dose end: 140 PND, group: cannot be grouped
rat [13] = settings: Prenatal developmental toxicity study, sprague dawley, Oral, Gavage/Intubation, dose end: 17 GD
mouse [14] = settings: Subchronic oral toxicity in rodents, b6c3f1, Water, dose end: 14 week
rat [15] = settings: Subchronic oral toxicity in rodents, fischer, Water, dose end: 6 week, group: systemic
rat [16] = settings: Carcinogenicity; fischer; Oral; Water; dose end: 104 week; group: systemic; systemic / in life observation / body weight / body weight
rat [17] = settings: Subchronic oral toxicity in rodents, fischer, Water, dose end: 14 week, group: systemic
rat [18] = settings: Chronic toxicity; fischer; Oral; Feed; dose end: 115 week; group: systemic; systemic / hematology / erythrocyte (rbc) count differential / erythrocyte (rbc) + systemic / hematology / hematocrit (hct) / hematocrit (…
mouse [19] = settings: Carcinogenicity, b6c3f1, Oral, Water, dose end: 105 week, group: systemic
rat [20] = settings: Carcinogenicity, fischer, Oral, Water, dose end: 105 week, group: systemic
rat [21] = settings: Developmental neurotoxicity study; sprague dawley; Oral; Feed; dose end: 90 PND; group: cannot be grouped; reproductive / offspring survival early / dead fetuses / dead fetuses + systemic / in life observation / body weight / offspring (pup) …
[22] = systemic / hematology / anemia / anemia - hemolytic + systemic / hematology / erythrocyte (rbc) count differential / erythrocyte (rbc) + …
[23] = systemic / hematology / anemia / anemia - hemolytic + systemic / in life observation / body weight / body weight + systemic / in life …
[24] = systemic / in life observation / clinical signs / alopecia
[25] = group: developmental, developmental / developmental malformation / trunk / umbilical hernia
[26] = group: maternal, systemic / in life observation / clinical signs / hemorrhagic perineal discharge
[27] = group: maternal, systemic / in life observation / clinical signs / hemorrhagic perineal discharge + reproductive / reproductive performance / …
[28] = systemic / organ weight / spleen / relative to body weight
[29] = systemic / organ weight / spleen / relative to body weight + systemic / pathology microscopic / spleen / hemosiderosis + systemic / in life …
[30] = group: offspring, systemic / in life observation / body weight / offspring (pup) weight + systemic / in life observation / body weight / offspring (pup) …
[31] = group: parental, systemic / organ weight / spleen / absolute + systemic / organ weight / spleen / relative to body weight + systemic / pathology microscopic…
[32] = group: parental, systemic / organ weight / spleen / relative to body weight
[33] = systemic / in life observation / body weight / body weight + systemic / in life observation / food consumption / food consumption + systemic…
[34] = group: developmental, developmental / developmental malformation / heart / atrial septum defect
[35] = group: maternal, systemic / in life observation / body weight / body weight gain + systemic / in life observation / food consumption / food consumption
[36] = reproductive / offspring survival early / birth index / birth index + reproductive / reproductive performance / gestational length / …
[37] = systemic / in life observation / body weight / offspring (pup) weight + systemic / organ weight / thymus / relative to body weight
[38] = group: developmental, developmental / developmental malformation / bone / wavy + developmental / developmental malformation / kidney / [other] + developmental / …
[39] = group: maternal, reproductive / reproductive performance / resorptions / resorptions + systemic / in life observation / body weight / body weight gain + …
[40] = group: maternal, reproductive / reproductive performance / estrous cycle / length
[41] = group: systemic, systemic / in life observation / body weight / body weight + systemic / in life observation / body weight / body weight gain + systemic / …
[42] = systemic / hematology / methemoglobin / methemoglobin + systemic / in life observation / body weight / body weight gain + systemic / in life…
[43] = systemic / hematology / methemoglobin / methemoglobin
[44] = systemic / hematology / methemoglobin / methemoglobin + systemic / clinical chemistry / urea nitrogen / urea nitrogen
[45] = systemic / in life observation / body weight / body weight + systemic / pathology microscopic / stomach / hyperplasia
[46] = systemic / in life observation / water consumption / water consumption

COCc1nnc(-c2ccc[n+]([O-])c2)n1-c1c(Cl)c(Cl)cc2[nH]c(=O)c(=O)[nH]c12
LEL (rat [1]): 20 mg/kg/day | LOAEL (rat [1]): > 20 mg/kg/day | NEL (rat [1]): < 20 mg/kg/day | NOAEL (rat [1]): ≥ 20 mg/kg/day

CSC(=O)c1cccc2nnsc12 [Acibenzolar-S-methyl]
LOAEL (dog [2]; [22]): 200 mg/kg/day | NEL (dog [2]; [22]): 10 mg/kg/day | NOAEL (dog [2]; [22]): 50 mg/kg/day | LEL (dog [2]; systemic / organ weight / liver / absolute + systemic / organ weight / liver / relative to body weight): 50 mg/kg/day | LOAEL (rat [3]; [23]): 312 mg/kg/day | NOAEL (rat [3]; [23]): 96.9 mg/kg/day | LEL (rat [3]; [24]): 0.9 mg/kg/day | NEL (rat [3]; [24]): < 0.9 mg/kg/day | LEL (rat [4]; [25]): 10 mg/kg/day | LOAEL (rat [4]; [25]): 10 mg/kg/day | NEL (rat [4]; [25]): < 10 mg/kg/day | NOAEL (rat [4]; [25]): < 10 mg/kg/day | LEL (rat [4]; [26]): 50 mg/kg/day | LOAEL (rat [4]; [26]): 400 mg/kg/day | NEL (rat [4]; [27]): 10 mg/kg/day | NOAEL (rat [4]; [27]): 200 mg/kg/day | LEL (mouse [5]; [28]): 47.4 mg/kg/day | NEL (mouse [5]; [28]): < 47.4 mg/kg/day | LOAEL (mouse [5]; [29]): 152 mg/kg/day | NOAEL (mouse [5]; [29]): 30.6 mg/kg/day | LEL (rat [6]; [30]): 100 mg/kg/day | LOAEL (rat [6]; [30]): 100 mg/kg/day | NEL (rat [6]; [30]): 10 mg/kg/day | NOAEL (rat [6]; [30]): 10 mg/kg/day | LOAEL (rat [6]; [31]): 100 mg/kg/day | NOAEL (rat [6]; [31]): 10 mg/kg/day | LEL (rat [6]; [32]): 1 mg/kg/day | NEL (rat [6]; [32]): < 1 mg/kg/day | LEL (dog [7]): 200 mg/kg/day | LOAEL (dog [7]): 200 mg/kg/day | NEL (dog [7]): 25 mg/kg/day | NOAEL (dog [7]): 25 mg/kg/day | LEL (mouse [8]): 234 mg/kg/day | LOAEL (mouse [8]): 234 mg/kg/day | NEL (mouse [8]): 10.8 mg/kg/day | NOAEL (mouse [8]): 10.8 mg/kg/day | LEL (rat [9]; systemic / clinical chemistry / sodium / sodium): 126 mg/kg/day | LOAEL (rat [9]; [33]): 516 mg/kg/day | NEL (rat [9]; [33]): 24.6 mg/kg/day | NOAEL (rat [9]; [33]): 126 mg/kg/day

O=B[O-].O=B[O-].[Ba+2] [Barium metaborate]
LEL (rat [10]): 349 mg/kg/day | LOAEL (rat [10]): 349 mg/kg/day | NEL (rat [10]): 70 mg/kg/day | NOAEL (rat [10]): 70 mg/kg/day | LEL (rat [11]): 881 mg/kg/day | LOAEL (rat [11]): 881 mg/kg/day | NEL (rat [11]): 459 mg/kg/day | NOAEL (rat [11]): 459 mg/kg/day

Cl.O=C(c1ccc(OCCN2CCCCC2)cc1)c1c(-c2ccc(O)cc2)sc2cc(O)ccc12 [Raloxifene hydrochloride]
LEL (rabbit; [34]): 0.1 mg/kg/day | LOAEL (rabbit; [34]): > 10 mg/kg/day | NEL (rabbit; [34]): < 0.1 mg/kg/day | NOAEL (rabbit; [34]): ≥ 10 mg/kg/day | LEL (rabbit; [35]): 10 mg/kg/day | LOAEL (rabbit; [35]): > 10 mg/kg/day | NEL (rabbit; [35]): 1 mg/kg/day | NOAEL (rabbit; [35]): ≥ 10 mg/kg/day | LOAEL (rat [12]; [36]): > 10 mg/kg/day | NOAEL (rat [12]; [36]): ≥ 10 mg/kg/day | LEL (rat [12]; [37]): 0.1 mg/kg/day | NEL (rat [12]; [37]): < 0.1 mg/kg/day | LEL (rat [13]; group: developmental, developmental / developmental malformation / bone / wavy + developmental / developmental malformation / kidney / [other]): 1 mg/kg/day | LOAEL (rat [13]; [38]): > 10 mg/kg/day | NEL (rat [13]; [38]): 0.1 mg/kg/day | NOAEL (rat [13]; [38]): ≥ 10 mg/kg/day | LOAEL (rat [13]; [39]): > 10 mg/kg/day | NOAEL (rat [13]; [39]): ≥ 10 mg/kg/day | LEL (rat [13]; [35]): 0.1 mg/kg/day | NEL (rat [13]; [35]): < 0.1 mg/kg/day

O=N[O-].[Na+] [Sodium nitrite]
LEL (mouse [14]; [40]): 445 mg/kg/day | LOAEL (mouse [14]; [40]): > 1230 mg/kg/day | NEL (mouse [14]; [40]): 240 mg/kg/day | NOAEL (mouse [14]; [40]): ≥ 1230 mg/kg/day | LOAEL (mouse [14]; [41]): 990 mg/kg/day | NEL (mouse [14]; [41]): 190 mg/kg/day | NOAEL (mouse [14]; [41]): 750 mg/kg/day | LEL (mouse [14]; group: systemic, systemic / in life observation / water consumption / water consumption): 345 mg/kg/day | LOAEL (rat [15]; [42]): > 500 mg/kg/day | NEL (rat [15]; [42]): 125 mg/kg/day | NOAEL (rat [15]; [42]): ≥ 500 mg/kg/day | LEL (rat [15]; systemic / hematology / methemoglobin / methemoglobin + systemic / in life observation / mortality / mortality + systemic / pathology gross…): 250 mg/kg/day | LEL (rat [16]): 125 mg/kg/day | LOAEL (rat [16]): > 125 mg/kg/day | NEL (rat [16]): 62.5 mg/kg/day | NOAEL (rat [16]): ≥ 125 mg/kg/day | LOAEL (rat [17]; [43]): 30 mg/kg/day | NOAEL (rat [17]; [43]): < 30 mg/kg/day | LEL (rat [17]; [44]): 30 mg/kg/day | NEL (rat [17]; [44]): < 30 mg/kg/day | LEL (rat [18]): 100 mg/kg/day | LOAEL (rat [18]): > 250 mg/kg/day | NEL (rat [18]): < 100 mg/kg/day | NOAEL (rat [18]): ≥ 250 mg/kg/day | LOAEL (mouse [19]; [45]): 165 mg/kg/day | NOAEL (mouse [19]; systemic / in life observation / body weight / body weight + systemic / pathology microscopic / stomach / hyperplasia + systemic / pathology…): 90 mg/kg/day | LEL (mouse [19]; [46]): 45 mg/kg/day | NEL (mouse [19]; [46]): < 45 mg/kg/day | LOAEL (rat [20]; [45]): 130 mg/kg/day | NOAEL (rat [20]; systemic / in life observation / body weight / body weight + systemic / pathology microscopic / stomach / hyperplasia + systemic / in life …): 70 mg/kg/day | LEL (rat [20]; [46]): 35 mg/kg/day | NEL (rat [20]; [46]): < 35 mg/kg/day | LEL (rat [21]): 12.5 mg/kg/day | LOAEL (rat [21]): > 25 mg/kg/day | NEL (rat [21]): 6.25 mg/kg/day | NOAEL (rat [21]): ≥ 25 mg/kg/day
